Marks after values point to notes of the source that are not given here.
Assays:
[1] = Prevention of iron-mediated oxidation of ascorbate (ascorbate-mediated reduction of Fe(III)); details: ascorbate 100 μM, FeCl3 30 μM, pH 7.4, ligand/Fe ratios 0-3, 40 min
Protocol: (§1) The iron chelators were tested for their ability to diminish the iron-mediated oxidation of ascorbate by the method of Dean and Nicholson (Free Radical Res. 20, 83-101 (1994)). Briefly, a solution of freshly prepared ascorbate (100 μM) in sodium phosphate buffer (5 mM, pH 7.4) was incubated in the presence of FeCl3 (30 μM) and chelator (ligand/Fe ratios varied from 0-3) for 40 min. The A265 was read at 10 and 40 min; the ΔA265 in the presence of ligand was compared to that in its absence.
The role of chelators in either inhibition or promotion of the Fenton reaction is related to their capacity to prevent Fe(III) from being reduced to Fe(II). Fe(II) is required for the reduction of H2O2 to HO. and HO^−. The assay involves spectrophotometrically monitoring the disappearance of ascorbate at pH 7.4 in the presence of FeCl3 and chelator at several ligand/Fe ratios. Under these conditions, ascorbate is oxidized to an L-ascorbyl radical anion. This anion then disproportionates to dehydroascorbic acid and ascorbate.
as §1, with “chelators nitrilotriacetic acid (NTA), 1,2-dimethyl-3-hydroxypyridin-4-one (L1), desferrioxamine B (DFO), (S)-4′-(HO)-DADMDFT, and (S,S)-1,11-Bis[5-(4-carboxyl-4,5-dihydro-1,3-thiazol-2-yl)-2,4-dihydroxyphenyl]-4,8-dioxaundecane (BDU)” for “chelators”, “Nicholson, Free” for “Nicholson (Free”, “20:” for “20,”, “(1994).” for “(1994)).”
The measurement examines the disappearance of ascorbate. It is known that DFO, a hydroxamate chelator that forms a 1:1 complex with Fe(III) at a formation constant of approximately 10^31 M^−1, prevents ascorbate-mediated reduction of Fe(III); it serves as a positive control in the present study. Both NTA and L1 promote ascorbate-mediated reduction of Fe(III) and serve as negative controls.

[2] = Quenching of the ABTS radical cation; details: for radical trapping compared with Trolox (in words): method of Example 6
Protocol: The iron chelators were tested for their ability to quench the radical cation formed from 2,2′-azinobis(3-ethylbenzothiazoline-6-sulfonic acid) (ABTS) by the method of Re et al. in Free Radic. Biol. Med. 26, 1231-1237 (1999). Briefly, a stock solution of ABTS radical cation was generated by mixing ABTS (10 mM, 2.10 mL) with K2S2O8 (8.17 mM, 0.90 mL) in H2O and […] deep blue-green ABTS radical cation was diluted in sufficient sodium phosphate (10 mM, pH 7.4) to give an A734 of about 0.900. Test compounds were added to a final concentration ranging from 1.25 to 15 μM, and the decrease in A734 was read after 1, 2, 4 and 6 min. The reaction was largely complete by 1 min, but the data presented are based on a 6-min reaction time.
In this assay, a fairly stable radical cation, ABTS^+, was examined, and Trolox, an analog of vitamin E, was used as a positive control. Briefly, the procedure involved generating the blue-green chromophore by the reaction of ABTS with K2S2O8. The radical has absorption maxima at λ=415, 645, 734, and 815 nm. The change in absorbance at 734 nm was noted 6 min after addition of the chelator of interest at various concentrations, and the slope of the ΔA734 vs. ligand concentration line was calculated.
The iron chelators were tested for their ability to quench the radical cation formed from 2,2′-azinobis(3-ethylbenzothiazoline-6-sulfonic acid) (ABTS) by a published method (Re, R., et al., Free Radical Biol. Med. 26:1231-1237 (1999). Briefly, a stock solution of ABTS radical cation was generated by mixing ABTS (10 mM, 2.10 mL) with K2S2O8 (8.17 mM, 0.90 mL) in H2O and allowing the solution to sit in the dark at room temperature for 18 hours. This stock solution of deep blue-green ABTS radical cation was diluted in sufficient sodium phosphate (10 mM, pH 7.4) to give an A734 of about 0.900. Test compounds were added to a final concentration ranging from 1.25 to 15 μM, and the decrease in A734 was read after 1, 2, 4 and 6 min. The reaction was largely complete by 1 min, but the data presented are based on a 6-min. reaction time.
This radical cation decolorization assay utilizes the pre-formed radical monocation of 2,2′-azinobis(3-ethylbenzothiazoline-6-sulfonic acid) (ABTS) and has been used to evaluate the antioxidant capacity of a large number of compounds and mixtures. Briefly, the change in absorbance of the blue-green chromophore was recorded after the addition of the chelator of interest at each of the different concentrations, and the slope of the ΔA734 vs. ligand concentration line was calculated. The positive control for this reaction was Trolox, an analogue of vitamin E. The decrease in A734 as a function of ligand concentration is the comparitor among the five compounds evaluated. Trolox, L1, DFO, (S)-4′-(HO)-DADMDFT and BDU (Table 3). All four of the iron chelators performed better than Trolox; DFO≈BDU>(S)-4′-(HO)-DADMDFT>L1>Trolox. Thus, all of these ligands could be expected to serve as excellent radical scavengers.

[3] = Quenching of the ABTS radical cation; details: Table 5; 6-min reaction, initial OD 1.000
[4] = tested on: Myeloperoxidase (MPO) activity in colonic tissue; assay: Myeloperoxidase (MPO) assay in colonic tissue of rats with acetic acid-induced colitis; format: in vivo; details: 650 μmol kg^−1 intracolonically 30 min before 4% acetic acid, mean ± standard deviation
Protocol: (§2) The ligands were administered to the rats intracolonically as a suspension or solution in distilled water (2 mL) at a dose of 650 μmol kg^−1. The drug solutions were made fresh for each experiment. ROWASA®, the pharmaceutical preparation which contains 5-ASA (2 mL, 66.7 mg mL^−1) was given at a dose of 2318 μmol kg^−1. Control rats received distilled water (2 mL), administered intracolonically.
(§3) Animal care and experimental procedures were approved by the Institutional Animal Care and Use Committee. Colitis was induced by a modification of published methods. Briefly, the rats were anesthetized with sodium pentobarbital, 55 mg kg^−1 intraperitoneally. The abdomen was shaved and prepared for surgery. A midline incision was made, and the cecum and proximal colon were exteriorized. A reversible suture was placed at the junction of the cecum and proximal colon. The colon was rinsed with saline (10 mL), and the fluid and intestinal contents were gently expressed out the rectum. A gum-based rectal plug was inserted. The compound of interest, or distilled water in the control animals (2 mL), was injected intracolonically just distal to the ligature. The cecum and proximal colon were returned to the abdominal cavity; the compound was allowed to remain in the gut for 30 min. Then, the cecum and proximal colon were reexteriorized. The rectal plug was removed, and the drug was gently expressed out of the colon. Acetic acid (4%, 2 mL) was injected into the proximal colon over a 15-20-second time period. The acid was allowed to remain in the gut until one minute had passed (i.e., 40-45 seconds after the end of the acid administration). The no acid control rats received distilled water (2 mL), which was administered in the same manner as was the acetic acid. Air (10 mL) was then injected into the proximal colon to expel the acid or water. The cecal/proximal colon ligature was removed, the gut was returned to the abdominal cavity, and the incisions were closed. The animals were allowed to recover overnight and were sacrificed 24 hr later. The entire length of the colon was removed and assessed for damage both densitometrically and biochemically.
The activity of MPO was measured in colonic tissue by a modification of the method of Krawisz et al. in Gastroenterology 87, 1344-1350 (1984). Each excised colon was homogenized in 9 volumes of homogenization buffer (0.5% hexadecyltrimethylammonium bromide (HDTMA) in 50 mM sodium acetate, pH 6.0); this homogenate was centrifuged at 1200 g for 20 min at 4° C. A sample of the supernatant (1.8 mL) was transferred into a microcentrifuge tube and stored frozen at −20° C. for up to one week. Prior to assay, the thawed aliquot was centrifuged at about 10,000 g for 15 minutes at 4° C. The final supernatant (33 μL) was added to a solution of o-dianisidine HCl (0.17 mg mL^−1 in 50 mM sodium acetate, pH 6.0, made fresh daily and filtered immediately before use) (950 μL), the mixture was vortexed, and the peroxidase reaction was initiated by the addition of H2O2 to 50 mM sodium acetate, pH 6.0, made fresh daily (16.7 μL). The A470 at room temperature (ca. 23° C.) was read at 15-second intervals for 2 min. The rates were assessed graphically and are presented as change in milliabsorbance units (ΔmAU)/min per g tissue. Under these conditions, 0.1 “Unit” of purified human leukocyte myeloperoxidase (Sigma M-6908) produced a ΔA470 of about 400 mAU/min.
The biochemical measurement involves measuring the level of MPO in a sample of homogenate of the whole rat colon. When the colon is damaged by the acetic acid, there is an extravasation of neutrophils. The extent of this infiltration can serve as a quantitative marker for tissue damage. Although other leukocytes, such as eosinophils and monocytes, also contribute to the inflammatory response, their contribution is small; the majority of the cells recruited during the acute inflammatory response are neutrophils. […]

[5] = tested on: acetic acid-induced colitis; assay: Acetic acid-induced colitis in rats, densitometric image analysis of colonic damage; format: in vivo; details: for Damage (%): 650 μmol kg^−1 intracolonically 30 min before 4% acetic acid, mean ± standard deviation; for protection against acetic acid-induced colonic damage (in words): intracolonic, image analysis and MPO assay
Protocol: as §2, §3
Gross damage was quantitated using Photoshop-based image analysis (version 5.0, Adobe Systems, Mountain View, Calif., USA) on an Apple iMac computer. The Magic Wand tool in the Select menu of Photoshop was used to place the cursor on an area of obvious damage. The tolerance level of the Magic Wand tool was set at 30. The damaged areas were automatically selected by using the Similar command in the Select menu. Then, the Eyedropper tool was used to determine the range of the damage in the highlighted areas. Individual colon images were copied to a blank Photoshop page. The Magic Wand tool, with a tolerance set to 100, was used to select all of the pixels in the colon sample. Then, the Histogram tool, which generates a graph in which each vertical line represents the number of pixels associated with a brightness level, was selected in the Image menu. The Red channel was then selected; the darker (damaged areas) appear on the left side of the histogram and the lighter (normal) areas are on the right side. The cursor was then placed on the histogram, the color range determined in an earlier step was selected, and the number of pixels encompassing that range and the percent damage were quantified automatically.
Two means were employed to assess the damage to the colon in the presence and absence of ligand, computer-based image analysis and colonic MPO measurement. The densitometric method removes much of the subjectivity involved in the simple scoring approaches. A digital image of the prepared colonic tissue is taken, and a clearly damaged segment is highlighted on the screen. Once the computer identifies all other segments of the intestine with the same or greater damage, a pixel number is generated; this number makes it possible to calculate the percentage of damaged intestine.

[6] = Table 1, A734, six-minute reaction, pH 7.4, 1.25 to 15 μM

Row | SMILES | effect on ascorbate-mediated reduction of Fe(III) (in words) [1] | radical trapping compared with Trolox (in words) [2] | Slope × 10^3 OD units/μM (ABTS radical cation quenching) [3] | MPO activity [4] | Damage (%) [5] [%] | protection against acetic acid-induced colonic damage (in words) [5] | Slope × 10^3 OD units/μM (ABTS radical cation quenching) [2, 6] | Slope × 10^3 OD units/μM (ABTS radical cation quenching) ([2]; Table 3, A734, 6-min reaction, values marked b are the inventors' unpublished results)
1 | COc1ccc(C2=NC(C)(C(=O)O)CS2)c(O)c1 (centres unmarked) [4′-(CH3O)-DADFT, 4′-methoxydesazadesferrithiocin] | slowed Fe(III) reduction considerably | as effective as Trolox | −36 × 10^3 OD units/μM |  |  |  |  | 
2 | COc1ccc(C2=N[C@@H](C(=O)O)CS2)c(O)c1 [4′-(CH3O)-DADMDFT, 4′-methoxydesazadesmethyldesferrithiocin] | slowed Fe(III) reduction considerably | as effective as Trolox | −33 × 10^3 OD units/μM |  |  |  |  | 
3 | CN(O)C(=O)[C@@]1(C)CSC(c2ccc(O)cc2O)=N1 [4′-(HO)-DADFT-NMH] |  |  |  | 41021 ± 35525 mAU min^−1g of colonic tissue^−1 | 46 ± 23 | moderately effective | −141.4 × 10^3 OD units/μM | 
4 | CN(O)C(=O)[C@H]1CSC(c2ccc(O)cc2O)=N1 [4′-(HO)-DADMDFT-NMH] |  |  |  | 18426 ± 20930 mAU min^−1g of colonic tissue^−1 | 39 ± 11 |  | −135.5 × 10^3 OD units/μM | 
5 | O=C(O)C1CSC(c2ncccc2O)=N1 (centres unmarked) [DMDFT, desmethyldesferrithiocin] |  |  |  | 39229 ± 27109 mAU min^−1g of colonic tissue^−1 | 61 ± 15 |  | −1.3 × 10^3 OD units/μM | 
6 | CN(O)C(=O)C1CSC(c2ncccc2O)=N1 (centres unmarked) [DMDFT-NMH, desmethyldesferrithiocin-N-methyl-hydroxamate] |  |  |  | 14406 ± 8683 mAU min^−1g of colonic tissue^−1 | 22 ± 17 | most effective | −47.4 × 10^3 OD units/μM | 
7 | Cc1ccc(O)c(C2=NC(C(=O)O)CC2)c1 (centres unmarked) [PCA, 3,4-dihydro-5-(2-hydroxy-5-methylphenyl)-2H-pyrrole-2-carboxylic acid] |  |  |  | 29942 ± 11255 mAU min^−1g of colonic tissue^−1 | 44 ± 11 |  | −3.3 × 10^3 OD units/μM | 
8 | Cc1c(C)c2c(c(C)c1O)CCC(C)(C(=O)O)O2 (centres unmarked) [Trolox, reference compound] |  |  | −37 × 10^3 OD units/μM |  |  |  | −36.6 × 10^3 OD units/μM | −37^b × 10^3 OD units/μM
